The results in this text go back to ChEMBL document CHEMBL5390211, “Discovery of N-Arylsulfonyl-Indole-2-Carboxamide Derivatives as Galectin-3 and Galectin-8 C-Terminal Domain Inhibitors” (ACS Med Chem Lett, 2023).

SMILES strings stand for the structures. Where only a bound is given, the exact number is not on record here.

The target in data set [1] is T1, Galectin-3 (Homo sapiens, UniProt P17931). The data set is described as follows: Binding affinity to human Gal-3 expressed in Escherichia coli BL21 (DE3) cells by competitive fluorescence polarization assay. A general note: Fluorescence polarisation rises when a labelled molecule tumbles more slowly, as on binding a larger partner.
T1 sequence (P17931 whole entry): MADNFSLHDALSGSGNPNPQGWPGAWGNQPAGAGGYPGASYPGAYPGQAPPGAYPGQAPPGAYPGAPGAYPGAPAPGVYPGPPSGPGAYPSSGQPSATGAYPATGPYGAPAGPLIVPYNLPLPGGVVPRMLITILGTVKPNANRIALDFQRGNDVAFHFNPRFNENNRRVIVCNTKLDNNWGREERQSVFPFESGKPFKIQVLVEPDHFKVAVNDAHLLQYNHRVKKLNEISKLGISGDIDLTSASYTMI
Data set [2] has as its target T2, Galectin-8 (Homo sapiens, UniProt O00214).
T2 sequence (O00214 whole entry): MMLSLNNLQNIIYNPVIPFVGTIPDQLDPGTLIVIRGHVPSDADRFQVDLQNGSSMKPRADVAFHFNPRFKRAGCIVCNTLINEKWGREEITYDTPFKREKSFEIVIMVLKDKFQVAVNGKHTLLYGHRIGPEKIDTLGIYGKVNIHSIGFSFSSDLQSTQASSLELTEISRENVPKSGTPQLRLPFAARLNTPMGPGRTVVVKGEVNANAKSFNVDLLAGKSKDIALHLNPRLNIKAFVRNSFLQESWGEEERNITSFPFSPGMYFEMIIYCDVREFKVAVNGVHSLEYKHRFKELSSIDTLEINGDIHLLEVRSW
The data set is described as follows: Binding affinity to C-terminal domain human Gal-8 expressed in Escherichia coli BL21 (DE3) cells by competitive fluorescence polarization assay.

The target of a further data set is Galectin-1 (Homo sapiens, UniProt P09382). The data set is described as follows: Binding affinity to human Gal-1 expressed in Escherichia coli BL21 (DE3) by competitive fluorescence polarization assay.
Chain of Galectin-1 (P09382 whole entry, the tested form may be a part): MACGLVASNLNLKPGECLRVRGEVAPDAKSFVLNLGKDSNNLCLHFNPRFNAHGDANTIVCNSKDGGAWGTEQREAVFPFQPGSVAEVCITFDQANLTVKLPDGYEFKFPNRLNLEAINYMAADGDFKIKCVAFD
The target of data set [3] is T2, Galectin-8. The data set is described as follows: Binding affinity to N-terminal domain human Gal-8 expressed in Escherichia coli BL21 (DE3) cells by competitive fluorescence polarization assay.
The target of data set [4] is T1, Galectin-3. The data set is described as follows: Binding affinity to human Gal-3 expressed in Escherichia coli BL21 (DE3) cells by isothermal titration calorimetry analysis. On the technique in general: Isothermal titration calorimetry measures the heat released or taken up as one component is titrated into another.
Data set [5] deals with T2, Galectin-8. The data set is described as follows: Binding affinity to C-terminal domain human Gal-8 expressed in Escherichia coli BL21 (DE3) cells by isothermal titration calorimetry analysis.
In data set [6] the target is T1, Galectin-3.
Description: Binding affinity to human Gal-3 expressed in Escherichia coli BL21 (DE3) cells assessed as change in enthalpy by isothermal titration calorimetry analysis
In data set [7] the target is T3, Galectin-8 (Homo sapiens) (UniProt O00214).
T3 sequence (whole entry): T2 sequence (O00214 whole entry)
Description: Binding affinity to C-terminal domain human Gal-8 expressed in Escherichia coli BL21 (DE3) cells assessed as change in enthalpy by isothermal titration calorimetry analysis

The target of data set [8] is T1, Galectin-3. The source holds these as a separate data set.
Description: Binding affinity to human Gal-3 expressed in Escherichia coli BL21 (DE3) cells assessed as change in entropy by isothermal titration calorimetry analysis
In data set [9] the target is T3, Galectin-8 (Homo sapiens). The source holds these as a separate data set.
Description: Binding affinity to C-terminal domain human Gal-8 expressed in Escherichia coli BL21 (DE3) cells assessed as change in entropy by isothermal titration calorimetry analysis
The target in data set [10] is T1, Galectin-3. The source holds these as a separate data set.
Description: Binding affinity to human Gal-3 expressed in Escherichia coli BL21 (DE3) cells assessed as change in gibbs free energy by isothermal titration calorimetry analysis
The target in data set [11] is T3, Galectin-8 (Homo sapiens). This is another data set of the same source.
Description: Binding affinity to C-terminal domain human Gal-8 expressed in Escherichia coli BL21 (DE3) cells assessed as change in gibbs free energy by isothermal titration calorimetry analysis
Data set [12] in a line: Cytotoxicity against human MRC5 cells assessed as cell viability at 10 uM incubated for 24 hrs by MTT assay relative to control. Format: toxicity, cell-based. Particulars: read-out: Activity. (Tetrazolium dyes change colour on reduction, which living cells bring about.)
A short description of data set [13]: Cytotoxicity against human MRC5 cells assessed as cell viability at 1 uM incubated for 24 hrs by MTT assay relative to control. Format: toxicity, cell-based. As to conditions: read-out: Activity.
For another data set, the system named is MRC5. The data set is described as follows: Inhibition of cell migration in human MRC5 cells assessed as reduction in would closure at 1 uM incubated for 48 hrs by Giemsa staining based microscopic analysis relative to control. Format: toxicity.

Usually Kd stands for a measure of binding affinity in units of concentration. As for `CCOC(=O)c1ccc(S(=O)(=O)NC(=O)c2cc3cc(Oc4ccc(Cl)c(Cl)c4)ccc3n2C)cc1`, the Kd was 36.5 µM at Galectin-3 [1], 16.1 µM on Galectin-8 [2], > 500 µM at Galectin-1 and > 300 µM on Galectin-8 [3].
Consider `O=C(NS(=O)(=O)c1ccc(Cl)cc1)c1cc2cc(Oc3ccc(Cl)c(Cl)c3)ccc2[nH]1`, for which the Kd on Galectin-3 [1] was 80.9 µM; on Galectin-8 [2], 18.1 µM.
`O=C(NS(=O)(=O)c1cc(F)c(F)c(F)c1)c1cc2cc(Oc3ccc(Cl)c(Cl)c3)ccc2[nH]1`: the Kd on Galectin-3 [1] is 33 µM; on Galectin-8 [2] it was 14.9 µM.
Turning to `Cc1noc(C)c1S(=O)(=O)NC(=O)c1cc2cc(Oc3ccc(Cl)c(Cl)c3)ccc2[nH]1`, the Kd stood at 74.2 µM on Galectin-3 [1] and 22.9 µM on Galectin-8 [2].
For `O=C(NS(=O)(=O)c1cc(Cl)c(Cl)s1)c1cc2cc(Oc3ccc(Br)cc3F)ccc2[nH]1` the same measures were 27.1 µM and 7.3 µM.
In the same order, the values of `O=C(NS(=O)(=O)c1cc(Cl)sc1Cl)c1cc2cc(Oc3ccc(Cl)c(Cl)c3)ccc2[nH]1` are 21.9 µM and 17.3 µM.
With `O=C(NS(=O)(=O)c1cc(Cl)c(Cl)s1)c1cc2cc(Oc3ccc(Cl)cn3)ccc2[nH]1`, the Kd at Galectin-3 [1] is 212 µM; at Galectin-8 [2] it was > 300 µM.
Consider `O=C(NS(=O)(=O)c1cc(Cl)c(Cl)s1)c1cc2cc(Oc3ccc(Cl)c(Cl)c3)ccc2o1`, for which the Kd at Galectin-3 [1] was 30.5 µM; at Galectin-8 [2], 9.6 µM; on Galectin-1, > 500 µM.
Turning to `O=C(NS(=O)(=O)c1cc(Cl)c(Cl)s1)c1cc2cc(Oc3ccc(Cl)c(Cl)c3)ccc2[nH]1`, the Kd at Galectin-3 [1] was 20 µM; on Galectin-8 [2], 10.9 µM; at Galectin-1, 70.8 µM; on Galectin-8 [3] it was > 300 µM.
Turning to `O=C(NS(=O)(=O)c1ccccc1Cl)c1cc2cc(Oc3ccc(Cl)c(Cl)c3)ccc2[nH]1`, the Kd is 24.9 µM at Galectin-3 [1] and 16.4 µM on Galectin-8 [2].
In the case of `O=C(NS(=O)(=O)c1sc(Cl)cc1Cc1ccccc1)c1cc2cc(Oc3ccc(Cl)c(Cl)c3)ccc2[nH]1`, the Kd on Galectin-3 [1] turned out to be 35.9 µM; at Galectin-8 [2] it was 5.6 µM; at Galectin-1 it was 96.1 µM.
Take `CCOC(=O)c1ccc(S(=O)(=O)N(C)C(=O)c2cc3cc(Oc4ccc(Cl)c(Cl)c4)ccc3n2C)cc1`: binding at Galectin-3 [1] was put at a Kd of 363 µM.
`O=C(NS(=O)(=O)c1ccc2oc(=O)ccc2c1)c1cc2cc(Oc3ccc(Cl)c(Cl)c3)ccc2[nH]1`: the Kd at Galectin-3 [1] is 10 µM; on Galectin-8 [2], 18.7 µM; at Galectin-1 it was 86.9 µM; at Galectin-8 [3], > 300 µM; at Galectin-3 [4] it was 11 µM; on Galectin-8 [5] it was 2.01 µM. Also, the results for the deltaH (at Galectin-3 [6]; in [7]) were -3.82 kcal/mol and -1.01 kcal/mol, respectively. Also, the results for the -TdeltaS (at Galectin-3 [8]; in data set [9]) were -2.94 kcal/mol and -6.76 kcal/mol, respectively. Also, the deltaG was -6.77 kcal/mol at Galectin-3 [10] and -7.77 kcal/mol in data set [11].
In the case of `CCOC(=O)c1ccc(S(=O)(=O)NC(=O)c2cc3cc(Oc4ccc(Cl)c(Cl)c4)ccc3[nH]2)cc1`, the Kd on Galectin-3 [1] stood at 17.1 µM; at Galectin-8 [2] it was 17.5 µM; on Galectin-1 it was 118 µM; at Galectin-8 [3], 228 µM.
`O=C(NS(=O)(=O)c1cc(Cl)c(Cl)s1)c1cc2cc(Oc3ccc(Br)c(Cl)c3)ccc2[nH]1`: the Kd on Galectin-3 [1] worked out at 23.7 µM; on Galectin-8 [2], 9.4 µM.
With `O=C(NS(=O)(=O)c1ccccc1)c1cc2cc(Oc3ccc(Cl)c(Cl)c3)ccc2[nH]1`, the Kd is 37.4 µM on Galectin-3 [1] and 18.7 µM on Galectin-8 [2].
In the same order, the values of `O=C(NS(=O)(=O)c1cc(Cl)c(Cl)s1)c1cc2cc(Oc3ccc(Cl)cc3Br)ccc2[nH]1` are 24.9 µM and 14.1 µM.
For `O=C(NS(=O)(=O)c1ccc2c(c1)OCC2)c1cc2cc(Oc3ccc(Cl)c(Cl)c3)ccc2[nH]1` the same measures were 20.1 µM and 15.5 µM.
On to `O=C(NS(=O)(=O)c1ccc(Cl)cc1Cl)c1cc2c(Oc3ccc(F)cc3)cccc2[nH]1`, for which the values for the Kd on Galectin-3 [1] and at Galectin-8 [2] were 224 µM and 253 µM, respectively.
In the same order, the values of `O=C(NS(=O)(=O)c1ccc(Cl)cc1Cl)c1cc2cc(Oc3ccc(F)cc3)ccc2[nH]1` are 121 µM and 57 µM.
In the same order, the values of `O=C(NS(=O)(=O)c1ccc(OC(F)(F)F)cc1)c1cc2cc(Oc3ccc(Cl)c(Cl)c3)ccc2[nH]1` are 15.5 µM and 18.5 µM.
Turning to `O=C(NS(=O)(=O)c1csc2ccccc12)c1cc2cc(Oc3ccc(Cl)c(Cl)c3)ccc2[nH]1`, the Kd is 10.6 µM on Galectin-3 [1] and 8.2 µM on Galectin-8 [2].
For `O=C(NS(=O)(=O)c1ccc([N+](=O)[O-])cc1)c1cc2cc(Oc3ccc(Cl)c(Cl)c3)ccc2[nH]1` the same measures were 30 µM and 19.2 µM.
A word on the inhibition: it is how much of the control response was suppressed. Consider `O=C(NS(=O)(=O)c1sccc1Cc1ccccc1)c1cc2cc(Oc3ccc(Cl)c(Cl)c3)ccc2[nH]1`, for which the viability at 24 h, 10 µM in data set [12] was 99%. Further, the Kd was determined as 22.7 µM on Galectin-3 [1]; 12.5 µM at Galectin-8 [2]; 138 µM on Galectin-1; 203 µM on Galectin-8 [3]; 12.8 µM at Galectin-3 [4]; 2.06 µM on Galectin-8 [5]. Further, in data set [13], the viability at 24 h, 1 µM is 97%. For the same compound, the inhibition at 1 µM in the data set with MRC5 is 21%. Also, the deltaH on Galectin-3 [6] is -4.74 kcal/mol; in [7], -2.29 kcal/mol. The -TdeltaS on Galectin-3 [8] was -1.94 kcal/mol; in data set [9] it was -5.47 kcal/mol. Also, the figures for the deltaG (on Galectin-3 [10]; in data set [11]) were -6.68 kcal/mol and -7.76 kcal/mol, respectively.
As to `O=C(NS(=O)(=O)c1ccccn1)c1cc2cc(Oc3ccc(Cl)c(Cl)c3)ccc2[nH]1`, the Kd on Galectin-3 [1] came out at 210 µM; on Galectin-8 [2] it was 41.8 µM.
Take `COc1cccc(S(=O)(=O)NC(=O)c2cc3cc(Oc4ccc(Cl)c(Cl)c4)ccc3[nH]2)c1`: the Kd at Galectin-3 [1] came to 39.2 µM; on Galectin-8 [2], 17.7 µM.
Consider `CC(C)c1ccc(Oc2ccc3cc(C(=O)NS(=O)(=O)c4ccc(Cl)cc4Cl)[nH]c3c2)cc1`, for which the dissociation constant Kd at Galectin-3 [1] came out at 784 µM.
Consider `O=C(NS(=O)(=O)c1cc(Cl)c(Cl)s1)c1cc2cc(Oc3ccc(Cl)cc3Cl)ccc2[nH]1`, for which the figures for the Kd at Galectin-3 [1] and on Galectin-8 [2] were 22.7 µM and 19.3 µM, respectively.
In the same order, the values of `O=C(O)c1ccc(S(=O)(=O)NC(=O)c2cc3cc(Oc4ccc(Cl)c(Cl)c4)ccc3[nH]2)cc1` are 119 µM and 73 µM.
Consider `O=C(NS(=O)(=O)Cc1noc2ccccc12)c1cc2cc(Oc3ccc(Cl)c(Cl)c3)ccc2[nH]1`, for which the Kd at Galectin-3 [1] amounted to 321 µM; on Galectin-8 [2], 24.6 µM.
Take `O=C(NS(=O)(=O)c1cc(Cl)c(Cl)s1)c1cc2cc(Oc3cccc(Cl)c3Br)ccc2[nH]1`: the Kd on Galectin-3 [1] was found to be 27.3 µM; on Galectin-8 [2], 19.2 µM.
For `O=C(NS(=O)(=O)c1cc(Cl)c(Cl)s1)c1cc2cc(Oc3ccc(Br)c(F)c3)ccc2[nH]1` the same measures were 14.3 µM and 8 µM.
For `O=C(NS(=O)(=O)c1ccc2ncsc2c1)c1cc2cc(Oc3ccc(Cl)c(Cl)c3)ccc2[nH]1`, the viability at 24 h, 10 µM in data set [12] came out at 66%. Also, the Kd came out at 7.6 µM at Galectin-3 [1]; 8.3 µM on Galectin-8 [2]; 107 µM at Galectin-1; 210 µM on Galectin-8 [3]; 4.12 µM at Galectin-3 [4]; 6.04 µM on Galectin-8 [5]. The viability at 24 h, 1 µM in data set [13] came out at 95%. Moreover, in the data set with MRC5, the inhibition at 1 µM was 14%. Also, the deltaH was found to be 1.28 kcal/mol on Galectin-3 [6] and 4.91 kcal/mol in data set [7]. Moreover, the -TdeltaS at Galectin-3 [8] was -8.63 kcal/mol; in [9], -12 kcal/mol. In addition, the deltaG at Galectin-3 [10] is -7.35 kcal/mol; in data set [11] it was -7.12 kcal/mol.
As for `O=C(NS(=O)(=O)c1ccc(Cl)cc1Cl)c1cc2cc(Oc3ccc(Cl)c(Cl)c3)ccc2[nH]1`, the Kd was 16 µM on Galectin-3 [1], 9.4 µM on Galectin-8 [2], 43.7 µM on Galectin-1 and > 300 µM at Galectin-8 [3].
As for `O=C(NS(=O)(=O)c1ccc(F)cc1S(=O)(=O)C(F)(F)F)c1cc2cc(Oc3ccc(Cl)c(Cl)c3)ccc2[nH]1`, the Kd on Galectin-3 [1] was 32.3 µM; at Galectin-8 [2], 16 µM.
Regarding `O=C(NS(=O)(=O)c1ccc(Cl)cc1Cl)c1cc2ccc(Oc3ccc(F)cc3)cc2[nH]1`, the Kd at Galectin-3 [1] came out at 303 µM; on Galectin-8 [2], 76.2 µM.
For `Cc1nc(Cl)sc1S(=O)(=O)NC(=O)c1cc2cc(Oc3ccc(Cl)c(Cl)c3)ccc2[nH]1` the same measures were 31 µM and 20.3 µM.
Regarding `O=C(NS(=O)(=O)c1ccn(Cl)n1)c1cc2cc(Oc3ccc(Cl)c(Cl)c3)ccc2[nH]1`, the Kd at Galectin-3 [1] turned out to be 76.9 µM; on Galectin-8 [2], 57 µM.
